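Protocol summary: plate cells (96-well), add compound at 5 concentrations, incubate 48 h, interpolate endpoints linearly. At the GI50, growth is halved.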 The source made the active and inactive calls. Rule as the data show it: active = GI50 up to about 1.1 µM and inactive = higher. Non-standard residues stand in square brackets, D forms with d. Residues, ends and D or L forms follow the SMILES beside them. *: point of attachment. Bn2Val = CC(C)[C@@H](C(=O)*)N(Cc1ccccc1)Cc1ccccc1; NMeV = CN[C@H](C(=O)O)C(C)C; X32 = COc1ccc(CN*)c(OC)c1; dNMeA = CN[C@H](C)C(=O)O
Columns and labels:
Assay in all cases: NCI tumour cell line growth inhibition, 48 h
[1] = tested on: HCC 2998
[2] = tested on: OVCAR-5
[3] = tested on: TK-10
[4] = tested on: MDA-N
[5] = tested on: CCRF-CEM
[6] = tested on: MDA-MB-435
[7] = tested on: RPMI-8226
[8] = tested on: OVCAR-4
[9] = tested on: HCT-15
[10] = tested on: SK-MEL-5
[11] = tested on: NCI-H226
[12] = tested on: U-251
[13] = tested on: CAKI-1
[14] = tested on: UACC-62
[15] = tested on: SF-268
[16] = tested on: NCI-H522
[17] = tested on: Hs-578T
[18] = tested on: K562
[19] = tested on: SK-OV-3
[20] = tested on: LOX IMVI

Compound	GI50 [1]	GI50 [2]	GI50 [3]	GI50 [4]	GI50 [5]	GI50 [6]	GI50 [7]	GI50 [8]	GI50 [9] [µM]	GI50 [10]	GI50 [11]	GI50 [12]	GI50 [13]	GI50 [14]	GI50 [15]	GI50 [16]	GI50 [17]	GI50 [18]	GI50 [19]	GI50 [20]
COC(=O)C1C=CN(N(C)C)C2=C1C(=O)c1c(O)cccc1C2=O (stereo not given)	1.93 µM (inactive)	2.42 µM (inactive)	4.27 µM (inactive)	0.422 µM (active)	2.22 µM (inactive)	0.429 µM (active)	0.887 µM (active)	2.17 µM (inactive)	1.51	0.54 µM (active)	1.87 µM (inactive)	3.29 µM (inactive)	2.47 µM (inactive)	1.04 µM (active)	3.83 µM (inactive)	2.48 µM (inactive)	2.69 µM (inactive)	3.09 µM (inactive)	6.19 µM (inactive)	–
CCN(CC)CCC(=O)c1ccc(Oc2ccc(C)cc2)cc1	19.2 µM (inactive)	19.5 µM (inactive)	17.7 µM (inactive)	17.7 µM (inactive)	26.3 µM (inactive)	18 µM (inactive)	7.29 µM (inactive)	24.4 µM (inactive)	18.7	–	35.2 µM (inactive)	17 µM (inactive)	17.3 µM (inactive)	17.3 µM (inactive)	18.8 µM (inactive)	–	23.4 µM (inactive)	30.5 µM (inactive)	28.4 µM (inactive)	16.7 µM (inactive)
CC12O[C@]3([C@H](C(=O)N4CCOC43C)[C@H]1Cl)[C@H]1O[C@H]12 (stereo not given in full)	> 100 µM (inactive)	> 100 µM (inactive)	> 100 µM (inactive)	> 100 µM (inactive)	–	> 100 µM (inactive)	94.8 µM (inactive)	> 100 µM (inactive)	> 100	> 100 µM (inactive)	> 100 µM (inactive)	> 100 µM (inactive)	> 100 µM (inactive)	> 100 µM (inactive)	> 100 µM (inactive)	> 100 µM (inactive)	> 100 µM (inactive)	98.6 µM (inactive)	> 100 µM (inactive)	> 100 µM (inactive)
C=C(C)[C@@H]1CC[C@]2(COC(C)=O)CC[C@]3(C)[C@H](CC[C@@H]4[C@@]5(C)CC[C@H](OC(C)=O)C(C)(C)[C@@H]5CC[C@]43C)[C@@H]12 [BETULIN DIACETATE]	0.857 µM (active)	–	–	> 50 µM (inactive)	> 50 µM (inactive)	> 50 µM (inactive)	> 50 µM (inactive)	> 50 µM (inactive)	> 50	> 50 µM (inactive)	> 50 µM (inactive)	> 50 µM (inactive)	–	> 50 µM (inactive)	–	> 50 µM (inactive)	> 50 µM (inactive)	> 50 µM (inactive)	> 50 µM (inactive)	> 50 µM (inactive)
CS(=O)(=O)Nc1ccc2c(c1)N(S(C)(=O)=O)CC2COS(C)(=O)=O (stereo not given)	> 100 µM (inactive)	40.5 µM (inactive)	36.8 µM (inactive)	> 100 µM (inactive)	35.8 µM (inactive)	> 100 µM (inactive)	25.8 µM (inactive)	76 µM (inactive)	> 100	18.9 µM (inactive)	> 100 µM (inactive)	25.8 µM (inactive)	24.6 µM (inactive)	> 100 µM (inactive)	> 10 µM (inactive)	19.7 µM (inactive)	94.2 µM (inactive)	52.4 µM (inactive)	–	70 µM (inactive)
CCCCCCCCCCCC1=C(O)C(=O)C(CC2=C(O)C(=O)C(CCCCCCCCCCC)=C(O)C2=O)=C(O)C1=O	> 100 µM (inactive)	> 100 µM (inactive)	46.6 µM (inactive)	> 100 µM (inactive)	21.2 µM (inactive)	> 100 µM (inactive)	–	40.7 µM (inactive)	> 100	> 100 µM (inactive)	> 100 µM (inactive)	43.5 µM (inactive)	60.5 µM (inactive)	> 100 µM (inactive)	26.5 µM (inactive)	40.6 µM (inactive)	22.8 µM (inactive)	49.8 µM (inactive)	50.9 µM (inactive)	> 100 µM (inactive)
CC(C)(C)C1CCC2c3c([nH]c4ccccc34)C3C(=O)N(c4ccc([N+](=O)[O-])cc4)C(=O)C3C2C1 (stereo not given)	9.14 µM (inactive)	25.2 µM (inactive)	21.3 µM (inactive)	28.5 µM (inactive)	8.51 µM (inactive)	28.1 µM (inactive)	27 µM (inactive)	5.62 µM (inactive)	18.1	12.2 µM (inactive)	13.9 µM (inactive)	15.6 µM (inactive)	–	3.12 µM (inactive)	7.36 µM (inactive)	12.5 µM (inactive)	11.4 µM (inactive)	5.96 µM (inactive)	35.1 µM (inactive)	8.34 µM (inactive)
COc1ccc(CNC(=O)[C@@H]2CCCN2C(=O)[C@@H](C)N(C)C(=O)[C@H](C(C)C)N(C)C(=O)[C@@H](NC(=O)[C@H](C(C)C)N(Cc2ccccc2)Cc2ccccc2)C(C)C)c(OC)c1 (Bn2Val-V[NMeV][dNMeA]P-X32)	2.33 µM (inactive)	1.59 µM (inactive)	4.47 µM (inactive)	2.35 µM (inactive)	–	2.61 µM (inactive)	2.67 µM (inactive)	3.41 µM (inactive)	3.05	–	5.41 µM (inactive)	2.25 µM (inactive)	4.04 µM (inactive)	4.18 µM (inactive)	3.71 µM (inactive)	3.56 µM (inactive)	7.53 µM (inactive)	0.0706 µM (active)	10.7 µM (inactive)	2.84 µM (inactive)
CCOC(=O)/C(=C\c1ccc(CO)o1)P(=O)(OCC)OCC	> 100 µM (inactive)	50 µM (inactive)	49.5 µM (inactive)	22.8 µM (inactive)	–	29 µM (inactive)	40.7 µM (inactive)	19.9 µM (inactive)	18.4	> 100 µM (inactive)	> 100 µM (inactive)	42.4 µM (inactive)	55.7 µM (inactive)	38.7 µM (inactive)	28.2 µM (inactive)	3.88 µM (inactive)	36.1 µM (inactive)	–	68.5 µM (inactive)	18.5 µM (inactive)
Cc1ccnc2c1ccc1nc3ccccc3n12	> 100 µM (inactive)	> 100 µM (inactive)	> 100 µM (inactive)	> 100 µM (inactive)	> 100 µM (inactive)	> 100 µM (inactive)	> 100 µM (inactive)	37.8 µM (inactive)	–	17.7 µM (inactive)	18.4 µM (inactive)	–	11.4 µM (inactive)	> 100 µM (inactive)	25.1 µM (inactive)	17.9 µM (inactive)	25.8 µM (inactive)	> 100 µM (inactive)	–	> 100 µM (inactive)
CSc1scc2c1/C(=N/NC(N)=O)CCC2	> 100 µM (inactive)	> 100 µM (inactive)	> 100 µM (inactive)	45.3 µM (inactive)	41.1 µM (inactive)	52.8 µM (inactive)	88.1 µM (inactive)	> 100 µM (inactive)	> 100	41.1 µM (inactive)	22.4 µM (inactive)	> 100 µM (inactive)	69.7 µM (inactive)	> 100 µM (inactive)	38.5 µM (inactive)	–	82.6 µM (inactive)	> 100 µM (inactive)	> 100 µM (inactive)	> 100 µM (inactive)
COc1cc(/C=C2\S/C(=N/Nc3nc(-c4ccc(Br)cc4)cs3)NC2=O)cc(OC)c1OC	16.3 µM (inactive)	18.2 µM (inactive)	12 µM (inactive)	17.4 µM (inactive)	2.45 µM (inactive)	15.5 µM (inactive)	–	17.8 µM (inactive)	11.3	5.02 µM (inactive)	4.09 µM (inactive)	2.99 µM (inactive)	18.2 µM (inactive)	11.1 µM (inactive)	20 µM (inactive)	12.5 µM (inactive)	11.9 µM (inactive)	–	13 µM (inactive)	9.29 µM (inactive)
CCc1n[nH]c(=O)n1NC(=O)/C=C\C(=O)O	> 100 µM (inactive)	> 100 µM (inactive)	> 100 µM (inactive)	> 100 µM (inactive)	> 100 µM (inactive)	> 100 µM (inactive)	–	> 100 µM (inactive)	> 100	> 100 µM (inactive)	> 100 µM (inactive)	> 100 µM (inactive)	> 100 µM (inactive)	> 100 µM (inactive)	> 100 µM (inactive)	> 100 µM (inactive)	> 100 µM (inactive)	> 100 µM (inactive)	> 100 µM (inactive)	–
CCOC(=O)c1cnc2oc(/C=N/N3CC(CN4CCOCC4)OC3=O)cc2c1O (stereo not given)	> 100 µM (inactive)	> 100 µM (inactive)	> 100 µM (inactive)	> 100 µM (inactive)	> 100 µM (inactive)	> 100 µM (inactive)	> 100 µM (inactive)	> 100 µM (inactive)	> 100	> 100 µM (inactive)	> 100 µM (inactive)	> 100 µM (inactive)	> 100 µM (inactive)	> 100 µM (inactive)	> 100 µM (inactive)	–	> 100 µM (inactive)	> 100 µM (inactive)	> 100 µM (inactive)	> 100 µM (inactive)
COc1cc([C@@H]2c3cc4c(cc3[C@@H](OC3OC5COC(C)OC5C(OC(=O)CN5CCN(C)CC5)C3OC(=O)CN3CCN(C)CC3)C3COC(=O)[C@@H]32)OCO4)cc(OC)c1OC(=O)CN1CCN(C)CC1 (stereo not given in full)	32.1 µM (inactive)	> 100 µM (inactive)	> 100 µM (inactive)	> 100 µM (inactive)	9.29 µM (inactive)	> 100 µM (inactive)	–	> 100 µM (inactive)	> 100	43.5 µM (inactive)	50.4 µM (inactive)	26.9 µM (inactive)	37.7 µM (inactive)	> 100 µM (inactive)	75.3 µM (inactive)	27.2 µM (inactive)	56 µM (inactive)	67.5 µM (inactive)	> 100 µM (inactive)	36.5 µM (inactive)

From ChEMBL document CHEMBL1201862, “PubChem BioAssay data set” (2004)
